The text below walks through data of patent US20250136601A1 (priority 2022, published 2025).

For experiment [1], the target named is T1, 5-HT2A receptor (Homo sapiens (Human), UniProt P28223). Kind of experiment: radioligand competitive binding assay, [3H]-LSD, 293T membranes.
The target of experiment [2] is T1, 5-HT2A receptor. Kind of experiment: cell-based. The note with it: for Emax: HEK-293T, read-out: β-arrestin2 signaling agonistic activity (percentage in parentheses); for pathway selectivity: β-arrestin2 recruitment versus G protein signaling: without activating the G protein signaling pathway; for Gq signaling agonistic activity (percentage in parentheses): value in parentheses. It counts as cell-based. The method, then:
On the second day, the confluent cells from a 6 cm culture dish were digested and reseeded into a 96-well plate at a volume of 100 μL of culture medium per well. On the third day, the drugs were added for testing. The 96-well plate was taken out from the cell incubator to decant the culture medium. 40 μL of the substrate coelenterazine 400a (final concentration 5 μM) was added to each well, and then 20 μL of different drugs were added sequentially from left to right, ensuring that the final concentration of the drug decreased gradually from bottom to top, with two replicates per treatment. Finally, the prepared samples were loaded on a plate reader for signal quantification. The readout values reflected the recruitment of β-arrestin2 to the membrane or the dissociation of G protein trimer. The former indicated the degree of activation of the downstream β-arrestin2 signaling pathway mediated by the 5-HT2A receptor, and the latter indicated the degree of activation of the downstream G protein signaling pathway mediated by the 5-HT2A receptor.
(Arrestin recruitment assays detect the binding of arrestin to an activated receptor.)

Where [3] appears, read: affinity for the 5-HT2A receptor, [3H]-LSD.
Setting [4] is: first value of cell, NA = no agonistic activity, read-out: Gq signaling agonistic activity (potency).
The mark [5] stands for this setting: first value of cell, NA = no agonistic activity, read-out: β-arrestin2 signaling agonistic activity (potency).

Like-named read-outs stand apart in the source and are kept apart here.

T1 sequence (P28223 whole entry): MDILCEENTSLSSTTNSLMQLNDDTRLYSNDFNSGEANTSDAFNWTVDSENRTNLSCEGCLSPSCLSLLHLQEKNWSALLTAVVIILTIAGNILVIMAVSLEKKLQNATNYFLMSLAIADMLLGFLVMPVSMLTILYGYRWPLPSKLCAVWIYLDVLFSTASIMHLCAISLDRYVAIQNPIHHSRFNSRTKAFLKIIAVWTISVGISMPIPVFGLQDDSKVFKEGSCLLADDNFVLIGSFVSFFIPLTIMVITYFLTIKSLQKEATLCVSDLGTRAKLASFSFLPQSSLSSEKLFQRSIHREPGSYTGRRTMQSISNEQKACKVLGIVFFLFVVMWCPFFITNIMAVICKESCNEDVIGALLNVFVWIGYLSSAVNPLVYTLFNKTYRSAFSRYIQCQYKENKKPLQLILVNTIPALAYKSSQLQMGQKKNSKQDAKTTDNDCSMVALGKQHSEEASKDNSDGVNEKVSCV

As for `COc1ccccc1CCN1CC[C@H]2[C@@H](C1)c1cccc3c1N2CCCN3C` (single isomer, unassigned) [Compound I-12], the inhibition constant Ki in experiment [1] was below 100 nM; in experiment [1] (setting [3]), 190 nM.

Take `COc1ccccc1CCN1CC[C@@H]2[C@H](C1)c1cccc3c1N2CCCN3C` (single isomer, unassigned) [Compound I-13]: in experiment [2], the EC50 stood at 181 nM, the Emax came to 51.4% and the “pathway selectivity: β-arrestin2 recruitment versus G protein signaling” value (from here on “pathway selectivity”) is recorded as “selectively activate the recruitment of β-arrestin2”. This compound also displayed an inhibitory constant (Ki) in experiment [1] below 100 nM. Moreover, the affinity in experiment [1] (setting [3]) corresponds to a Ki of 34 nM.

As for `COc1ccccc1CCCN1CC[C@H]2[C@@H](C1)c1cccc3c1N2CCCN3C` (single isomer, unassigned) [Compound I-14], in experiment [1], the inhibitory constant (Ki) is below 100 nM.

As to `COc1ccccc1CCCN1CC[C@@H]2[C@H](C1)c1cccc3c1N2CCCN3C` (single isomer, unassigned) [Compound I-15], in experiment [2], the EC50 stood at 97.2 nM and the Emax amounted to 24.3%. In experiment [1], this compound yielded a Ki below 100 nM.

Regarding `COc1ccccc1CCCN1CC[C@H]2[C@@H](C1)c1cccc3c1N2CCC3` (single isomer, unassigned) [Compound I-18, 10-(3-(2-methoxyphenyl)propyl)-5,6,7a,8,9,10,11,11a-octahydro-4H-pyrido[3′,4′:4,5]pyrrolo[3,2,1-i]quinoline], the Ki in experiment [1] is below 100 nM.

As to `COc1ccccc1CCCN1CC[C@@H]2[C@H](C1)c1cccc3c1N2CCC3` (single isomer, unassigned) [Compound I-19], in experiment [2], the EC50 worked out at 562 nM, the Emax was 59.4% and the “pathway selectivity” value is given as “selectively activate the recruitment of β-arrestin2”. In experiment [1], this compound displayed a Ki below 100 nM. Besides, the inhibition constant (Ki) in experiment [1] (setting [3]) was 18 nM.

Turning to `COc1ccccc1CCCN1CC[C@H]2[C@@H](C1)c1cccc3c1N2CCCS3` (single isomer, unassigned) [Compound I-26], the Ki in experiment [1] is below 100 nM; in experiment [1] (setting [3]) it was 93 nM.

Consider `COc1ccccc1CN1CC[C@H]2[C@@H](C1)c1cccc3c1N2CCN3C` [Compound I-1], for which, in experiment [2], the Emax worked out at 60.2% and the “Gq signaling agonistic activity (percentage in parentheses)” value amounted to 67.0%. In addition, the EC50 in experiment [2] (setting [4]) is 120 nM. For the same compound, the EC50 in experiment [2] (setting [5]) amounted to 174 nM.

In the case of `CN1CCN2c3c(cccc31)[C@@H]1CN(Cc3ccccc3O)CC[C@@H]12` [Compound I-2], the Emax in experiment [2] was 68.4%. In addition, the EC50 is 309 nM in experiment [2] (setting [4]) and 229 nM in experiment [2] (setting [5]). In experiment [2], the “Gq signaling agonistic activity (percentage in parentheses)” value is reported as 65.3%.

Consider `COc1cccc(CCN2CC[C@H]3[C@@H](C2)c2cccc4c2N3CCN4C)c1` [Compound I-4], for which, in experiment [2], the Emax came to 44.2% and the “Gq signaling agonistic activity (percentage in parentheses)” value is reported as 13.7%. Besides, the Ki in experiment [1] was below 100 nM.

Turning to `COc1ccc(CCN2CC[C@H]3[C@@H](C2)c2cccc4c2N3CCN4C)cc1` [Compound I-5], in experiment [2], the EC50 amounted to 684 nM and the Emax is 3.2%.

In turn, `COc1ccc(OC)c(CCN2CC[C@H]3[C@@H](C2)c2cccc4c2N3CCN4C)c1` [Compound I-8, (6bR,10aS)-8-(2,5-dimethoxy)-3-methyl-2,3,6b,7,8,9,10,10a-octahydro-1H-pyrido[3′,4′:4,5]pyrrolo[1,2,3-de]quinoxaline] displayed a Ki in experiment [1] (setting [3]) of 3060 nM.

For the compound `CN1CCN2c3c(cccc31)[C@@H]1CN(CCc3ccccc3O)CC[C@@H]12` [Compound I-9, 2-(2-((6bR,10aS)-3-methyl-2,3,6b,9,10,10a-hexahydro-1H-pyrido[3′,4′:4,5]pyrrolo[1,2,3-de]quinoxalin-8(7H)-yl)ethyl)phenol], in experiment [2], the EC50 came out at 75.9 nM and the Emax came to 14.4%. Moreover, the Ki in experiment [1] was below 100 nM. Besides, the Ki in experiment [1] (setting [3]) stood at 31 nM.

Turning to `CN1CCN2c3c(cccc31)[C@@H]1CN(CCCc3ccccc3O)CC[C@@H]12` [Compound I-11, 2-(3-((6bR,10aS)-3-methyl-2,3,6b,9,10,10a-hexahydro-1H-pyrido[3′,4′:4,5]pyrrolo[1,2,3-de]quinoxalin-8(7H)-yl)propyl)phenol], in experiment [2], the Emax worked out at 36.8% and the “Gq signaling agonistic activity (percentage in parentheses)” value is recorded as 9.7%. In experiment [1], the Ki is below 100 nM. For the same compound, the Ki in experiment [1] (setting [3]) worked out at 89 nM.

For `COc1ccccc1CCCN1CC[C@@H]2[C@H](C1)c1cccc3c1N2CCCS3` [Compound I-27, (8aR,12aS)-11-(3-(2-methoxyphenyl)propyl)-6,7,8a,9,10,11,12,12a-octahydro-5H-pyrido[4,3-b][1,4]thiazepino[2,3,4-hi]indole], in experiment [2], the EC50 amounted to 878 nM, the Emax turned out to be 35.7% and the “pathway selectivity” value was “selectively activate the recruitment of β-arrestin2”. Besides, the Ki in experiment [1] is below 100 nM. This compound came in with an inhibition constant (Ki) in experiment [1] (setting [3]) of 8 nM.

What is called Ki is the equilibrium dissociation constant of an inhibitor or competing ligand from its target. High values mean weaker binding, low ones tighter binding.
